Results published in patent US10251395B2, “Substituted furano-/thienocycloalkylamino-2-pyrimidine derivatives and use thereof for controlling undesired plant growth” (Bayer CropScience Aktiengesellschaft, priority 2015, dated 2019).

Legend:
Assay type in all cases: in vivo
Abutilon theophrasti [1] = test: Pre-emergence herbicidal effect; details: scored visually after 3 weeks
In short: (§1)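 Sowing in sandy loam, covering with soil, then surface application of compound as aqueous suspension or emulsion (600 to 800 L/ha, 0.2% wetting agent). Greenhouse growth under good conditions; visual % damage scored at 3 weeks versus untreated pots.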

Alopecurus myosuroides [2] = test: Pre-emergence herbicidal effect; details: scored visually after 3 weeks
In short: as §1

Amaranthus retroflexus [3] = test: Pre-emergence herbicidal effect; details: scored visually after 3 weeks
In short: as §1

Avena fatua = test: Pre-emergence herbicidal effect; details: Dosage 320 g/ha, scored visually after 3 weeks
In short: as §1

Echinochloa crus-galli [4] = test: Pre-emergence herbicidal effect; details: scored visually after 3 weeks
In short: as §1

Ipomoea purpurea [5] = test: Pre-emergence herbicidal effect; details: scored visually after 3 weeks
In short: as §1

Matricaria inodora [6] = test: Pre-emergence herbicidal effect; details: scored visually after 3 weeks
In short: as §1

Polygonum convolvulus [7] = test: Pre-emergence herbicidal effect; details: scored visually after 3 weeks
In short: as §1

Setaria viridis [8] = test: Pre-emergence herbicidal effect; details: scored visually after 3 weeks
In short: as §1

Stellaria media [9] = test: Pre-emergence herbicidal effect; details: scored visually after 3 weeks
In short: as §1

Veronica persica [10] = test: Pre-emergence herbicidal effect; details: scored visually after 3 weeks
In short: as §1

Viola tricolor [11] = test: Pre-emergence herbicidal effect; details: scored visually after 3 weeks
In short: as §1

Abutilon theophrasti [12] = test: Post-emergence herbicidal effect; details: assessed visually after about 3 weeks vs untreated controls
In short: (§2)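 Percent herbicidal action was judged by eye roughly 3 weeks post-application, 0% matching control plants and 100% meaning plant death. Seedlings, greenhouse-grown in sandy loam, received the spray at one leaf.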

Alopecurus myosuroides [13] = test: Post-emergence herbicidal effect; details: 320 g/ha, assessed visually after about 3 weeks vs untreated controls
In short: as §2

Amaranthus retroflexus [14] = test: Post-emergence herbicidal effect; details: assessed visually after about 3 weeks vs untreated controls
In short: as §2

Echinochloa crus-galli [15] = test: Post-emergence herbicidal effect; details: assessed visually after about 3 weeks vs untreated controls
In short: as §2

Ipomoea purpurea [16] = test: Post-emergence herbicidal effect; details: assessed visually after about 3 weeks vs untreated controls
In short: as §2

Lolium multiflorum [17] = test: Post-emergence herbicidal effect; details: 320 g/ha, assessed visually after about 3 weeks vs untreated controls
In short: as §2

Matricaria inodora [18] = test: Post-emergence herbicidal effect; details: assessed visually after about 3 weeks vs untreated controls
In short: as §2

Polygonum convolvulus [19] = test: Post-emergence herbicidal effect; details: assessed visually after about 3 weeks vs untreated controls
In short: as §2

Setaria viridis [20] = test: Post-emergence herbicidal effect; details: assessed visually after about 3 weeks vs untreated controls
In short: as §2

Stellaria media [21] = test: Post-emergence herbicidal effect; details: assessed visually after about 3 weeks vs untreated controls
In short: as §2

Veronica persica [22] = test: Post-emergence herbicidal effect; details: assessed visually after about 3 weeks vs untreated controls
In short: as §2

Viola tricolor [23] = test: Post-emergence herbicidal effect; details: assessed visually after about 3 weeks vs untreated controls
In short: as §2

Cyperus esculentus = test: Pre-emergence herbicidal effect; details: Dosage 320 g/ha, scored visually after 3 weeks
In short: as §1

Lolium multiflorum [24] = test: Pre-emergence herbicidal effect; details: Dosage 320 g/ha, scored visually after 3 weeks
In short: as §1

Cc1cc2c(s1)CCCC2Nc1ncc(C(F)(F)F)c(N)n1 (racemic) [compound 61]
ABUTH pre-emergence efficacy (herbicidal activity) (Abutilon theophrasti [1]; Dosage 80 g/ha): 30%
ABUTH pre-emergence efficacy (herbicidal activity) (Abutilon theophrasti [1]; Dosage 320 g/ha): 100%
ALOMY pre-emergence efficacy (herbicidal activity) (Alopecurus myosuroides [2]; Dosage 80 g/ha): 80%
ALOMY pre-emergence efficacy (herbicidal activity) (Alopecurus myosuroides [2]; Dosage 320 g/ha): 100%
AMARE pre-emergence efficacy (herbicidal activity) (Amaranthus retroflexus [3]; Dosage 80 g/ha): 100%
AMARE pre-emergence efficacy (herbicidal activity) (Amaranthus retroflexus [3]; Dosage 320 g/ha): 100%
AVEFA pre-emergence efficacy (herbicidal activity) (Avena fatua): 80%
ECHCG pre-emergence efficacy (herbicidal activity) (Echinochloa crus-galli [4]; Dosage 80 g/ha): 90%
ECHCG pre-emergence efficacy (herbicidal activity) (Echinochloa crus-galli [4]; Dosage 320 g/ha): 90%
PHBPU pre-emergence efficacy (herbicidal activity) (Ipomoea purpurea [5]; Dosage 320 g/ha): 90%
MATIN pre-emergence efficacy (herbicidal activity) (Matricaria inodora [6]; Dosage 80 g/ha): 100%
MATIN pre-emergence efficacy (herbicidal activity) (Matricaria inodora [6]; Dosage 320 g/ha): 100%
POLCO pre-emergence efficacy (herbicidal activity) (Polygonum convolvulus [7]; Dosage 80 g/ha): 90%
POLCO pre-emergence efficacy (herbicidal activity) (Polygonum convolvulus [7]; Dosage 320 g/ha): 90%
SETVI pre-emergence efficacy (herbicidal activity) (Setaria viridis [8]; Dosage 80 g/ha): 100%
SETVI pre-emergence efficacy (herbicidal activity) (Setaria viridis [8]; Dosage 320 g/ha): 100%
STEME pre-emergence efficacy (herbicidal activity) (Stellaria media [9]; Dosage 80 g/ha): 90%
STEME pre-emergence efficacy (herbicidal activity) (Stellaria media [9]; Dosage 320 g/ha): 100%
VERPE pre-emergence efficacy (herbicidal activity) (Veronica persica [10]; Dosage 80 g/ha): 100%
VERPE pre-emergence efficacy (herbicidal activity) (Veronica persica [10]; Dosage 320 g/ha): 100%
VIOTR pre-emergence efficacy (herbicidal activity) (Viola tricolor [11]; Dosage 80 g/ha): 80%
VIOTR pre-emergence efficacy (herbicidal activity) (Viola tricolor [11]; Dosage 320 g/ha): 100%
post-emergence efficacy ABUTH (Abutilon theophrasti [12]; 80 g/ha): 90%
post-emergence efficacy ABUTH (Abutilon theophrasti [12]; 320 g/ha): 90%
post-emergence efficacy ALOMY (Alopecurus myosuroides [13]): 100%
post-emergence efficacy AMARE (Amaranthus retroflexus [14]; 80 g/ha): 90%
post-emergence efficacy AMARE (Amaranthus retroflexus [14]; 320 g/ha): 90%
post-emergence efficacy ECHCG (Echinochloa crus-galli [15]; 80 g/ha): 100%
post-emergence efficacy ECHCG (Echinochloa crus-galli [15]; 320 g/ha): 100%
post-emergence efficacy PHBPU (Ipomoea purpurea [16]; 80 g/ha): 90%
post-emergence efficacy PHBPU (Ipomoea purpurea [16]; 320 g/ha): 100%
post-emergence efficacy LOLMU (Lolium multiflorum [17]): 90%
post-emergence efficacy MATIN (Matricaria inodora [18]; 320 g/ha): 100%
post-emergence efficacy POLCO (Polygonum convolvulus [19]; 80 g/ha): 80%
post-emergence efficacy POLCO (Polygonum convolvulus [19]; 320 g/ha): 90%
post-emergence efficacy SETVI (Setaria viridis [20]; 80 g/ha): 80%
post-emergence efficacy SETVI (Setaria viridis [20]; 320 g/ha): 90%
post-emergence efficacy STEME (Stellaria media [21]; 80 g/ha): 100%
post-emergence efficacy STEME (Stellaria media [21]; 320 g/ha): 100%
post-emergence efficacy VERPE (Veronica persica [22]; 80 g/ha): 100%
post-emergence efficacy VERPE (Veronica persica [22]; 320 g/ha): 100%
post-emergence efficacy VIOTR (Viola tricolor [23]; 80 g/ha): 90%
post-emergence efficacy VIOTR (Viola tricolor [23]; 320 g/ha): 90%

CC(=NO)c1cnc(NC2CCCc3sc(C)cc32)nc1N (stereo not drawn) [compound 286]
ABUTH pre-emergence efficacy (herbicidal activity) (Abutilon theophrasti [1]; Dosage 80 g/ha): 70%
ABUTH pre-emergence efficacy (herbicidal activity) (Abutilon theophrasti [1]; Dosage 320 g/ha): 60%
ALOMY pre-emergence efficacy (herbicidal activity) (Alopecurus myosuroides [2]; Dosage 320 g/ha): 60%
AMARE pre-emergence efficacy (herbicidal activity) (Amaranthus retroflexus [3]; Dosage 320 g/ha): 100%
CYPES pre-emergence efficacy (herbicidal activity) (Cyperus esculentus): 70%
ECHCG pre-emergence efficacy (herbicidal activity) (Echinochloa crus-galli [4]; Dosage 320 g/ha): 100%
PHBPU pre-emergence efficacy (herbicidal activity) (Ipomoea purpurea [5]; Dosage 80 g/ha): 100%
PHBPU pre-emergence efficacy (herbicidal activity) (Ipomoea purpurea [5]; Dosage 320 g/ha): 50%
LOLMU pre-emergence efficacy (herbicidal activity) (Lolium multiflorum [24]): 80%
MATIN pre-emergence efficacy (herbicidal activity) (Matricaria inodora [6]; Dosage 80 g/ha): 80%
MATIN pre-emergence efficacy (herbicidal activity) (Matricaria inodora [6]; Dosage 320 g/ha): 100%
POLCO pre-emergence efficacy (herbicidal activity) (Polygonum convolvulus [7]; Dosage 320 g/ha): 100%
SETVI pre-emergence efficacy (herbicidal activity) (Setaria viridis [8]; Dosage 320 g/ha): 100%
STEME pre-emergence efficacy (herbicidal activity) (Stellaria media [9]; Dosage 80 g/ha): 60%
STEME pre-emergence efficacy (herbicidal activity) (Stellaria media [9]; Dosage 320 g/ha): 100%
VERPE pre-emergence efficacy (herbicidal activity) (Veronica persica [10]; Dosage 80 g/ha): 100%
VERPE pre-emergence efficacy (herbicidal activity) (Veronica persica [10]; Dosage 320 g/ha): 100%
VIOTR pre-emergence efficacy (herbicidal activity) (Viola tricolor [11]; Dosage 80 g/ha): 100%
VIOTR pre-emergence efficacy (herbicidal activity) (Viola tricolor [11]; Dosage 320 g/ha): 100%
post-emergence efficacy ABUTH (Abutilon theophrasti [12]; 80 g/ha): 90%
post-emergence efficacy ABUTH (Abutilon theophrasti [12]; 320 g/ha): 90%
post-emergence efficacy AMARE (Amaranthus retroflexus [14]; 80 g/ha): 90%
post-emergence efficacy AMARE (Amaranthus retroflexus [14]; 320 g/ha): 90%
post-emergence efficacy PHBPU (Ipomoea purpurea [16]; 80 g/ha): 70%
post-emergence efficacy PHBPU (Ipomoea purpurea [16]; 320 g/ha): 70%
post-emergence efficacy MATIN (Matricaria inodora [18]; 80 g/ha): 80%
post-emergence efficacy MATIN (Matricaria inodora [18]; 320 g/ha): 90%
post-emergence efficacy STEME (Stellaria media [21]; 80 g/ha): 70%
post-emergence efficacy STEME (Stellaria media [21]; 320 g/ha): 100%
post-emergence efficacy VERPE (Veronica persica [22]; 320 g/ha): 100%
post-emergence efficacy VIOTR (Viola tricolor [23]; 80 g/ha): 90%
post-emergence efficacy VIOTR (Viola tricolor [23]; 320 g/ha): 90%
